In US20040146872A1, “Fat regulated genes, uses thereof and compounds for modulating same” (priority 2003, published 2004):

Tests used:
Format in all cases: in vivo
SCD2 = assay: Northern blot quantification of SCD2 mRNA in liver of rats fed PUFA-supplemented fat free diet; settings: rat liver RNA; female Wistar rats, fat free diet 2 weeks, then fatty acid 5% (w/w) in diet 2 weeks; ± standard deviation of three rats; normalized for 18S; fat free = 100
From the text: (§1) The present inventors have identified genes that were modulated or regulated by dietary fat using a differential display technique (Liang P. and Pardee A. B., 1992, Science, 257: 967-971). Groups of female Wistar rats were fed fat free diet for two weeks. After two weeks all groups but one (controls) were supplemented with highly purified PUFAs for an additional two weeks. The rats were sacrificed and tissues were removed to obtain RNA for differential display and Northern blotting. Differential display identified genes regulated by dietary fat by comparing mRNA populations from rat liver. For the study, the rats were divided into six groups and fed fat free diet for 14 days. Each group was fed fat free diet for an additional two weeks with the following supplements: group 1-no supplement (fat free control); group 2-linoleic acid (LA, 18:2n-6); group 3-gamma-linolenic acid (GLA, 18:3n-6); group 4-alpha-linolenic acid (ALA, 18:3n-3); group 5-eicosapentaenoic acid (EPA, 20:5n-3) and group 6-docosahexaenoic acid (DHA, 22:6n-3). Fatty acids were administered in the diet at a fatty acid-specific concentration of 5% (w/w), as described in Example 1. The rats were fed ad libitum. […] The rats were randomly divided into 6 groups and fed fat free diet (Teklad #94013). After 2 weeks, groups 2-6 were fed diets supplemented with highly purified polyunsaturated fatty acids for an additional 2 weeks. The concentration of the specific fatty acid used for each group was 5% (w/w) of the total diet preparation. The experimental design is provided below. Diets were prepared by mixing the oils into the fat free diet. The mixed diet was stored at -20° C. under a nitrogen atmosphere to prevent fatty acid oxidation. Dietary feedings were provided at the same time each day. Diet preparations are shown below. Rats ([…]) were sacrificed via cardiac puncture under anesthesia. The livers were perfused with saline, excised and frozen in liquid nitrogen in preparation for RNA extraction. Total RNA from 0.4 g of each liver was isolated as per manufacturer's protocol using Trizol Reagent (Gibco BRL). In order to remove contaminating genomic DNA, the RNA sample was incubated with RQ1 RNase-free DNase (Promega) for 30 minutes at 37° C. The RNA was subsequently precipitated and resuspended to a final concentration of 0.5 mg/ml. To confirm the expression pattern of the genes as discovered in the differential display experiment and to determine the transcript size of these genes, Northern blot analysis was performed. […] The transfer of the RNA onto the membrane was verified by methylene blue staining. […] The Northern blot was performed following the protocol in Ausubel et al., 1994-, Current Protocols in Molecular Biology, John Wiley & Sons, NY. […]

G6PD = assay: Northern blot quantification of G6PD mRNA in liver of rats fed PUFA-supplemented fat free diet; settings: rat liver RNA; female Wistar rats, fat free diet 2 weeks, then fatty acid 5% (w/w) in diet 2 weeks; ± standard deviation of three rats; not normalized for 18S; fat free = 100
From the text: as §1

GPAT = assay: Northern blot quantification of GPAT mRNA in liver of rats fed PUFA-supplemented fat free diet; settings: rat liver RNA; female Wistar rats, fat free diet 2 weeks, then fatty acid 5% (w/w) in diet 2 weeks; ± standard deviation of three rats; normalized for 18S; fat free = 100
From the text: as §1

FAS = assay: Northern blot quantification of FAS mRNA in liver of rats fed PUFA-supplemented fat free diet; settings: rat liver RNA; female Wistar rats, fat free diet 2 weeks, then fatty acid 5% (w/w) in diet 2 weeks; ± standard deviation of three rats; normalized for 18S; fat free = 100
From the text: as §1

[1] = test system: delta-3, delta-2-enoyl-CoA isomerase; assay: Northern blot quantification of delta-3, delta-2-enoyl-CoA isomerase mRNA in liver of rats fed PUFA-supplemented fat free diet; settings: rat liver RNA; female Wistar rats, fat free diet 2 weeks, then fatty acid 5% (w/w) in diet 2 weeks; ± standard deviation of three rats; normalized for 18S; EPA = 100, fat free = 14 ± 18
From the text: as §1

COMT = assay: Northern blot quantification of COMT mRNA in liver of rats fed PUFA-supplemented fat free diet; settings: rat liver RNA; female Wistar rats, fat free diet 2 weeks, then fatty acid 5% (w/w) in diet 2 weeks; ± standard deviation of three rats; normalized for 18S; fat free = 100
From the text: as §1

ApoA-1 = assay: Northern blot quantification of ApoA-1 mRNA in liver of rats fed PUFA-supplemented fat free diet; settings: rat liver RNA; female Wistar rats, fat free diet 2 weeks, then fatty acid 5% (w/w) in diet 2 weeks; ± standard deviation of three rats; normalized for 18S; fat free = 100
From the text: as §1

Spot-14 = assay: Northern blot quantification of Spot-14 mRNA in liver of rats fed PUFA-supplemented fat free diet; settings: rat liver RNA; female Wistar rats, fat free diet 2 weeks, then fatty acid 5% (w/w) in diet 2 weeks; ± standard deviation of three rats; normalized for 18S; fat free = 100
From the text: as §1

INSIG1 = assay: Northern blot quantification of INSIG1 mRNA in liver of rats fed PUFA-supplemented fat free diet; settings: rat liver RNA; female Wistar rats, fat free diet 2 weeks, then fatty acid 5% (w/w) in diet 2 weeks; ± standard deviation of three rats; normalized for 18S; fat free = 100
From the text: as §1

FTF1 = assay: Northern blot quantification of FTF1 mRNA in liver of rats fed PUFA-supplemented fat free diet; settings: rat liver RNA; female Wistar rats, fat free diet 2 weeks, then fatty acid 5% (w/w) in diet 2 weeks; ± standard deviation of three rats; not normalized for 18S; fat free = 100
From the text: as §1

GLOL = assay: Northern blot quantification of GLOL mRNA in liver of rats fed PUFA-supplemented fat free diet; settings: rat liver RNA; female Wistar rats, fat free diet 2 weeks, then fatty acid 5% (w/w) in diet 2 weeks; ± standard deviation of three rats; normalized for 18S; fat free = 100
From the text: as §1

METP = assay: Northern blot quantification of METP mRNA in liver of rats fed PUFA-supplemented fat free diet; settings: rat liver RNA; female Wistar rats, fat free diet 2 weeks, then fatty acid 5% (w/w) in diet 2 weeks; ± standard deviation of three rats; normalized for 18S; EPA = 100, fat free = 10 ± 5
From the text: as §1

A1BG = assay: Northern blot quantification of A1BG mRNA in liver of rats fed PUFA-supplemented fat free diet; settings: rat liver RNA; female Wistar rats, fat free diet 2 weeks, then fatty acid 5% (w/w) in diet 2 weeks; ± standard deviation of three rats; not normalized for 18S; DHA = 100, fat free = 7 ± 9
From the text: as §1

SCD1 = assay: Northern blot quantification of SCD1 mRNA in liver of rats fed PUFA-supplemented fat free diet; settings: rat liver RNA; female Wistar rats, fat free diet 2 weeks, then fatty acid 5% (w/w) in diet 2 weeks; ± standard deviation of three rats; normalized for 18S; fat free = 100
From the text: The present inventors have identified genes that were modulated or regulated by dietary fat using a differential display technique (Liang P. and Pardee A. B., 1992, Science, 257: 967-971). Groups of female Wistar rats were fed fat free diet for two weeks. After two weeks all groups but one (controls) were supplemented with highly purified PUFAs for an additional two weeks. The rats were sacrificed and tissues were removed to obtain RNA for differential display and Northern blotting. Differential display identified genes regulated by dietary fat by comparing mRNA populations from rat liver. For the study, the rats were divided into six groups and fed fat free diet for 14 days. Each group was fed fat free diet for an additional two weeks with the following supplements: group 1-no supplement (fat free control); group 2-linoleic acid (LA, 18:2n-6); group 3-gamma-linolenic acid (GLA, 18:3n-6); group 4-alpha-linolenic acid (ALA, 18:3n-3); group 5-eicosapentaenoic acid (EPA, 20:5n-3) and group 6-docosahexaenoic acid (DHA, 22:6n-3). Fatty acids were administered in the diet at a fatty acid-specific concentration of 5% (w/w), as described in Example 1. The rats were fed ad libitum. […] The rats were randomly divided into 6 groups and fed fat free diet (Teklad #94013). After 2 weeks, groups 2-6 were fed diets supplemented with highly purified polyunsaturated fatty acids for an additional 2 weeks. The concentration of the specific fatty acid used for each group was 5% (w/w) of the total diet preparation. The experimental design is provided below. Diets were prepared by mixing the oils into the fat free diet. The mixed diet was stored at -20° C. under a nitrogen atmosphere to prevent fatty acid oxidation. Dietary feedings were provided at the same time each day. Diet preparations are shown below. Rats ([…]) were sacrificed via cardiac puncture under anesthesia. The livers were perfused with saline, excised and frozen in liquid nitrogen in preparation for RNA extraction. Total RNA from 0.4 g of each liver was isolated as per manufacturer's protocol using Trizol Reagent (Gibco BRL). […]

[2] = test system: mRNA populations from rat liver; assay: Differential display of mRNA populations from liver of rats fed PUFA-supplemented fat free diet; settings: preliminary differential display studies
From the text: The present inventors have identified genes that were modulated or regulated by dietary fat using a differential display technique (Liang P. and Pardee A. B., 1992, Science, 257: 967-971). Groups of female Wistar rats were fed fat free diet for two weeks. After two weeks all groups but one (controls) were supplemented with highly purified PUFAs for an additional two weeks. The rats were sacrificed and tissues were removed to obtain RNA for differential display and Northern blotting. Differential display identified genes regulated by dietary fat by comparing mRNA populations from rat liver. For the study, the rats were divided into six groups and fed fat free diet for 14 days. Each group was fed fat free diet for an additional two weeks with the following supplements: group 1—no supplement (fat free control); group 2—linoleic acid (LA, 18:2n-6); group 3—gamma-linolenic acid (GLA, 18:3n-6); group 4—alpha-linolenic acid (ALA, 18:3n-3); group 5—eicosapentaenoic acid (EPA, 20:5n-3) and group 6—docosahexaenoic acid (DHA, 22:6n-3). Fatty acids were administered in the diet at a fatty acid-specific concentration of 5% (w/w), as described in Example 1. The rats were fed ad libitum. The protocol used in the present differential display experiment is based on, and closely followed, the Clontech Delta Differential Display Kit (Clontech Catalog No. K1810-1). […]

Row | Structure (SMILES) | quantification of the Northern blots, SCD2 (SCD2) | quantification of the Northern blots, G6PD (G6PD) | quantification of the Northern blots, GPAT (GPAT) | quantification of the Northern blots, FAS (FAS) | quantification of the Northern blots, delta-3, delta-2-enoyl-CoA isomerase [1] | quantification of the Northern blots, COMT (COMT) | quantification of the Northern blots, ApoA-1 (ApoA-1) | quantification of the Northern blots, Spot-14 (Spot-14) | quantification of the Northern blots, INSIG1 (INSIG1) | quantification of the Northern blots, FTF1 (FTF1) | quantification of the Northern blots, GLOL (GLOL) | quantification of the Northern blots, METP (METP) | quantification of the Northern blots, A1BG (A1BG) | quantification of the Northern blots, SCD1 (SCD1) | differences in differential display versus fat free control [2]
1 | CC/C=C\C/C=C\C/C=C\C/C=C\C/C=C\CCCC(=O)O [EPA, eicosapentaenoic acid] | 2 ± 1% | 15 ± 14% | 14 ± 10% | 17 ± 14% | 100 ± 35% | 50 ± 4% | 25 ± 4% | 19 ± 25% | 25 ± 3% | 10 ± 7% | 29 ± 15% | 100 ± 16% | 32 ± 30% | – | –
2 | CC/C=C\C/C=C\C/C=C\C/C=C\C/C=C\C/C=C\CCC(=O)O [DHA, docosahexaenoic acid] | 4 ± 1% | 19 ± 7% | 26 ± 15% | 27 ± 21% | 87 ± 2% | 49 ± 3% | 12 ± 1% | 24 ± 18% | 13 ± 11% | 13 ± 12% | 36 ± 17% | 80 ± 28% | 100 ± 64% | 1 ± 1% | –
3 | CCCCC/C=C\C/C=C\C/C=C\CCCCC(=O)O [GLA, gamma-linolenic acid] | 11 ± 6% | 8 ± 9% | 15 ± 13% | 17 ± 12% | 33 ± 15% | 45 ± 23% | 32 ± 8% | 12 ± 7% | 11 ± 2% | 4 ± 8% | 37 ± 11% | 78 ± 12% | 14 ± 10% | 6 ± 8% | –
4 | CCCCC/C=C\C/C=C\CCCCCCCC(=O)O [LA, linoleic acid] | 63 ± 15% | 42 ± 27% | 52 ± 5% | 47 ± 40% | 29 ± 27% | 59 ± 6% | 90 ± 23% | 50 ± 6% | 49 ± 12% | 56 ± 15% | 64 ± 6% | 37 ± 7% | 52 ± 47% | 63 ± 20% | no differences
